Patent publication US6794395B1, “Substituted indolinones, their manufacture and their use as medicaments” (Boehringer Ingelheim Pharma GmbH & Co. KG, priority 1999, dated 2004)

System: Human umbilical endothelial cells (HUVEC)
Experiment: Inhibition of VEGF165-stimulated HUVEC proliferation (3H-thymidine incorporation)
Type: cell-based
Conditions: HUVEC proliferation stimulated with 5 ng/ml VEGF165 and 10 μg/ml heparin, 76 h + 16 h 3H-thymidine
Method: Human umbilical endothelial cells (HUVEC) were cultivated in IMDM (Gibco BRL), supplemented with 10% foetal calf serum (FBS) (Sigma), 50 μM of β-mercaptoethanol (Fluka), standard antibiotics, 15 μg/ml of endothelial cell growth factor (ECGS, Collaborative Biomedical Products) and 100 μg/ml of heparin (Sigma) on gelatine-coated culture dishes (0.2% gelatine, Sigma) at 37° C., under 5% CO2 in a water-saturated atmosphere.
In order to investigate the inhibitory activity of the compounds according to the invention the cells were “starved” for 16 hours, i.e. kept in culture medium without growth factors (ECGS+heparin). The cells were detached from the culture dishes using trypsin/EDTA and washed once in serum-containing medium. Then they were seeded out in amounts of 2.5×10^3 cells per well.
The proliferation of the cells was stimulated with 5 ng/ml of VEGF165 (vascular endothelial growth factor; H. Weich, GBF Braunschweig) and 10 μg/ml of heparin. As a control, 6 wells in each dish were not stimulated.
The compounds according to the invention were dissolved in 100% dimethylsulphoxide and added to the cultures in various dilutions as triple measurements, the maximum dimethyl sulphoxide concentration being 0.3%.
The cells were incubated for 76 hours at 37° C., then for a further 16 hours ^3H-thymidine (0.1 μCi/well, Amersham) was added in order to determine the DNA synthesis. Then the radioactively labelled cells were immobilised on filter mats and the radioactivity incorporated was measured in a β-counter. In order to determine the inhibitory activity of the compounds according to the invention the mean value of the non-stimulated cells was subtracted from the mean value of the factor-stimulated cells (in the presence or absence of the compounds according to the invention).
The relative cell proliferation was calculated as a percentage of the control (HUVEC without inhibitor) and the concentration of active substance which inhibits the proliferation of the cells by 50% (IC50) was determined.

SMILES	IC50
COc1cc2c(cc1OC)/C(=C(/Nc1ccc(CN(C)Cc3ccccc3)cc1)c1ccccc1)C(=O)N2 [1 (3), 3-(Z)-(1-{4-[(N-benzyl-N-methyl-amino)-methyl)-anilino}-1-phenyl-methylidene)-5,6-dimethoxy-2-indolinone]	270 nM
COc1cc2c(cc1OC)/C(=C(/Nc1ccc(N(C)C(=O)CN(C)C)cc1)c1ccccc1)C(=O)N2 [1 (8), 3-(Z)-{1-[4-(N-dimethylaminomethylcarbonyl-N-methyl-amino)-anilino]-1-phenyl-methylidene}-5,6-dimethoxy-2-indolinone]	50 nM
COc1cc2c(cc1OC)/C(=C(/Nc1ccc(N(CCN(C)C)C(C)=O)cc1)c1ccccc1)C(=O)N2 [1 (17), 3-(Z)-(1-{4-[N-acetyl-N-(2-dimethylamino-ethyl)-amino]-anilino}-1-phenyl-methylidene)-5,6-dimethoxy-2-indolinone]	40 nM
COc1cc2c(cc1OC)/C(=C(/Nc1ccc(N(CCCN(C)C)C(C)=O)cc1)c1ccccc1)C(=O)N2 [1 (18), 3-(Z)-(1-{4-[N-acetyl-N-(3-dimethylamino-propyl)-amino]-anilino}-1-phenyl-methylidene)-5,6-dimethoxy-2-indolinone]	40 nM
CC/C(Nc1ccc(N(C)C(=O)CN(C)C)cc1)=C1/C(=O)Nc2cc(OC)c(OC)cc21 [1 (50), 3-(Z)-{1-[4-(N-dimethylaminomethylcarbonyl-N-methylamino)-anilino]-1-ethyl-methylidene}-5,6-dimethoxy-2-indolinone]	830 nM
COc1cc2c(cc1OC)/C(=C(/Nc1ccc(CN(C)C)cc1)c1ccccc1)C(=O)N2 [Example 1 (6), 3-(Z)-(1-(4-(dimethylaminomethyl)-anilino]-1-phenyl-methylidene}-5,6-dimethoxy-2-indolinone]	20 nM
COc1cc2c(cc1OC)/C(=C(/Nc1ccc(CN3CCCCC3)cc1)c1ccccc1)C(=O)N2 [Example 1, 3-(Z)-{1-[4-(piperidin-1-yl-methyl)-anilino]-1-phenyl-methylidene}-5,6-dimethoxy-2-indolinone]	30 nM
COc1cc2c(cc1OC)/C(=C(/Nc1ccc(CCN3CCC(C(=O)N(C)C)CC3)cc1)c1ccccc1)C(=O)N2 [Example 3, 3-(Z)-(1-{4-[2-(4-dimethylcarbamoyl-piperidin-1-yl)-ethyl]-anilino}-1-phenyl-methylidene)-5,6-dimethoxy-2-indolinone]	50 nM
Nc1ccc2c(c1)NC(=O)/C2=C(\Nc1ccc(CN2CCCCC2)cc1)c1ccccc1 [Example 4, 6-amino-3-(Z)-{1-[4-(piperidin-1-yl-methyl)-anilino]-1-phenyl-methylidene}-2-indolinone]	40 nM

System: not listed separately
Experiment: Tolerance test on mice (oral LD50)
Conditions: mouse, in vivo, read-out: approximate oral LD50
Method: In addition the compound of Example 1 (6) was tested on mice for its tolerance. The approximate oral LD50 for this compound is over 1,000 mg/kg. The compounds of general formula I are therefore well tolerated.

SMILES	LD50
COc1cc2c(cc1OC)/C(=C(/Nc1ccc(CN(C)C)cc1)c1ccccc1)C(=O)N2 [Example 1 (6), 3-(Z)-(1-(4-(dimethylaminomethyl)-anilino]-1-phenyl-methylidene}-5,6-dimethoxy-2-indolinone]	> 1000 mg/kg
